According to US8263757B2, “Promiscuous HER-2/Neu CD4 T cell epitopes” (Dendreon Corporation, priority 2006, dated 2012):

How the values were obtained:
[1] = system: T cell clone HER500.23c21; assay: Antigen-specific stimulation of T cell clone HER500.23c21 by protein antigens presented by autologous PBMC (IFNγ ELISA, IL-2 by HT-2 proliferation); type: cell-based, human; conditions: autologous PBMC presentation, increasing doses of antigen; for IFNγ and IL-2 production by HER500.23c21 in response to antigen: 48 hours
Protocol: FIG. 1. T cell clone HER500.23c21 is HER-2/Neu specific. (A) HER500 (amino acids ▪ and BA7072 (HER500/GM-CSF fusion protein) ♦ specific IFNγ production by HER500.23c21 was measured using ELISA after autologous PBMC presentation of the antigens; background was also tested ▴. Assay was set up in triplicate in 96 well round bottom plates in complete IMDM media with 10% FBS. Autologous PBMCs were used at 2×10^5 cells/well and T cell clone HER500.23c21 was added at 1×10^5 cells/well. Antigens were at the final concentrations shown. Assay was incubated for 48 hours at 37° C. with 5% CO2 and supernatant was removed from wells to test for cytokine production. (A) IFNγ production. Data points shown represent the calculated pg/mL for each antigen concentration. (B) IL-2 production for the same assay was measured using HT-2 cell proliferation. Data points represent the mean CPM values for each antigen concentration.
Identification and Characterization of HER-2/neu specific T cell clones. Clones were screened for antigen specificity using autologous PBMC and antigen or autologous EBV-LcL and Her500 peptides. Stimulations were set up in 96 well round bottom plates in cRPMI+10% FBS media and incubated for 48 hours at 37° C. with 5% CO2. Additionally, clones were stained for CD4 and CD8 surface expression by flow cytometry.
Cytokine Production. To determine cytokine production in the antigen specific stimulation assays, after 48 hours, 200 μL of supernatant was pulled from cultures and tested for both IL-2 and IFNγ production. IL-2 production was measured using the IL-2 dependent line HT-2 (ATCC). HT-2 cells were grown in IMDM with 10% FBS and 100 uM NEAA, 1 mM Sodium Pyruvate, 2 mM L-glutamine, […], 50 U/mL Streptomycin, 20 mM HEPES and 20 uM 2-Mercaptoethanol (cIMDM+10% FBS) and fed twice a week with 20 ng/mL rIL-2. For the assay, 4 days after HT-2 cells were split, cells were washed with IMDM+10% FBS to remove all rIL-2, and cells were added to 96 well round bottom plates at 1×10^4 cells/well in cIMDM+10% FBS. Supernatants from antigen specific stimulation were added to wells and plates were incubated 24-30 hours at 37° C. The following day 1 μCi of ^3[H] TdR was added for the final 6 hours of the assay and plates were harvested to glass fiber filter mats and DNA incorporation of the radioisotope, or proliferative response, was determined by counts per minute using a liquid scintillation counter (PerkinElmer Life and Analytical Sciences, Inc. Boston, Mass.). IFNγ production was measured using anti-human IFNγ antibody pairs for ELISA (BD Pharmingen, San Diego, Calif.). […] 2M HCl was added to stop the reaction and plates were read for absorbance at 492 nm on a spectrophotometer. […]

[2] = system: T cell clone HER500.23c21; assay: Minimal epitope: truncated HERp270-284 peptides presented by EBV LcL lines of diverse HLA-DRB1 alleles to HER500.23c21; type: cell-based, human; conditions: presented by EBV LcL lines representing HLA-DRB1 alleles *0301, *0302, *1301 and *1402
From the text: FIG. 5. Graphic depiction of IFNγ production by HER500.23c21 following exposure to peptides presented by EBV LcL lines of diverse HLA-DRb1 alleles. The peptides were 9-mers (SEQ ID NOS:3-9) within the HER-2/Neu peptide 270-284 (SEQ ID NO:2).
FIG. 6. Graphic depiction of IFNγ production by HER500.23c21 following exposure to peptides presented by EBV LcL lines of diverse HLA-DRb1 alleles. The peptides were 10- or 11-mers (SEQ ID NOs:12-15, 10, 1, 16-19 and 11, respectively) within the HER-2/Neu peptide 270-284.
Because of the clear response of HER500.23c21 to HER-2/Neu protein sequences, the specific epitope recognized by HER500.23c21 was mapped using peptides. HER500.23c21 was tested against a panel of 125 individual overlapping 15-mer peptides covering the HER-2/Neu protein sequences within HER500. Each peptide was used at 1 ug/ml with autologous EBV LCL cells as antigen presenting cells. […]
In this series of experiments, additional peptides derived from the HER-2/Neu protein were tested for their potential as promiscuous MHC Class II HER-2/neu epitopes. […] Supernatants were harvested and analyzed for IFNγ production using ELISA. […] Results of the IFNγ produced by clone HER500.23c21 in response to peptide and each HLA-DR allele are reported in pg/mL of IFNγ or as absorbance at 492 nm.

Substance | dose dependence of HER500.23c21 response to protein [1] | IFNγ and IL-2 production by HER500.23c21 in response to antigen [1] | Stimulation of HER500.23c21 [2]
BA7072: proprietary recombinant fusion protein: HER500 expressed as a fusion protein with hGM-CSF | dose dependent manner | specifically produced IFNγ and IL-2 | 
HER500: recombinant protein containing sequences from both the ECD and ICD of HER-2/neu; HER-2/neu portion of BA7072 | dose dependent manner | specifically produced IFNγ and IL-2 | 
TYNTDTFESMP (HER-2p270-284 11-mer) [SEQ ID NO:11, 11-mer truncation of HERp270-284] |  |  | successful
VTYNTDTFESM (HER-2p270-284 11-mer) [SEQ ID NO:10, 11-mer truncation of HERp270-284] |  |  | successful
